Assay results from patent publication US20080113962A1, “Condensed Tricyclic Benzimidazoles For the Treatment of Gastrointestinal Disorders” (Aitana Pharma AG, priority 2004, published 2008).

Legend:
[1] = test system: pentagastrin-stimulated acid secretion of the perfused rat stomach; assay: Secretion-inhibiting action on the perfused rat stomach (pentagastrin-stimulated acid secretion); type: in vivo; details: anesthetized CD rat, dose 3.0 μmol/kg i.d. (intraduodenal)
Description: Testing of the Secretion-Inhibiting Action on the Perfused Rat Stomach
In Table A which follows, the influence of the compounds of the formula 1 according to the invention on the pentagastrin-stimulated acid secretion of the perfused rat stomach after intraduodenal administration in vivo is shown.
The abdomen of anesthetized rats (CD rat, female, 200-250 g; 1.5 g/kg i.m. urethane) was opened after tracheotomy by a median upper abdominal incision and a PVC catheter was fixed transorally in the esophagus and another via the pylorus such that the ends of the tubes just projected into the gastric lumen. The catheter leading from the pylorus led outward into the right abdominal wall through a side opening.
After thorough rinsing (about 50-100 ml), warm (37° C.) physiological NaCl solution was continuously passed through the stomach (0.5 ml/min, pH 6.8-6.9; Braun-Unita I). The pH (pH meter 632, glass electrode EA 147; φ=5 mm, Metrohm) and, by titration with a freshly prepared 0.01N NaOH solution to pH 7 (Dosimat 665 Metrohm), the secreted HCl were determined in the effluent in each case collected at an interval of 15 minutes.
The gastric secretion was stimulated by continuous infusion of […] (=1.65 ml/h) of i.v. pentagastrin (left femoral vein) about 30 min after the end of the operation (i.e. after determination of 2 preliminary fractions). […]

| melting point | Compound | Inhibition of acid secretion [1] |
| --- | --- | --- |
| 177 to 178 °C | CCOC1CC(c2ccccc2)Oc2c1ccc1c2nc(C)n1C (stereo not shown) [Example 3, 6-(2-Ethoxy)-2,3-dimethyl-8-phenyl-3,6,7,8-tetrahydro-chromeno[7,8-d]imidazole] |  |
| 228 to 229 °C | Cc1nc2c3c(ccc2n1C)[C@H](O)C[C@H](c1ccccc1)O3 (relative stereo) [Example 1, cis-2,3-Dimethyl-8-phenyl-3,6,7,8-tetrahydro-chromeno[7,8-d]imidazol-6-ol] |  |
| 148 to 149 °C | COCCOC1CC(c2ccccc2)Oc2c1ccc1c2nc(C)n1C (stereo not shown) [Example 2, 6-(2-Methoxy-ethoxy)-2,3-dimethyl-8-phenyl-3,6,7,8-tetrahydro-chromeno[7,8-d]imidazole] | >50% |
